Experimental data reported in ChEMBL document CHEMBL1201862, “PubChem BioAssay data set” (2004).
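How tested: cells in 96-well plates exposed to compound for 48 hours at five concentrations. GI50: concentration for 50% inhibition of growth.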 The source made the active and inactive calls. Cut-off read from the data, not from the text of the source: active = GI50 up to about 1.1 µM and inactive = higher.

How the values were obtained:
Experiment in all cases: growth of human tumour cells (NCI), 48 h
[1] = test system: 786-0
[2] = test system: HCC 2998
[3] = test system: Hs-578T
[4] = test system: SK-MEL-28
[5] = test system: HCT-116
[6] = test system: UACC-62
[7] = test system: CAKI-1
[8] = test system: A549
[9] = test system: NCI-H226
[10] = test system: LOX IMVI
[11] = test system: HOP-62
[12] = test system: OVCAR-3
[13] = test system: Malme-3M
[14] = test system: MDA-MB-231
[15] = test system: SF-268
[16] = test system: MCF7
[17] = test system: RPMI-8226
[18] = test system: NCI-H23
[19] = test system: SK-OV-3
[20] = test system: SR

| SMILES | GI50 [1] | GI50 [2] | GI50 [3] | GI50 [4] | GI50 [5] | GI50 [6] | GI50 [7] | GI50 [8] | GI50 [9] | GI50 [10] | GI50 [11] | GI50 [12] | GI50 [13] | GI50 [14] | GI50 [15] | GI50 [16] | GI50 [17] | GI50 [18] | GI50 [19] | GI50 [20] |
| --- | --- | --- | --- | --- | --- | --- | --- | --- | --- | --- | --- | --- | --- | --- | --- | --- | --- | --- | --- | --- |
| FC(F)(F)c1ccc(Cc2nc3cc4ccccc4cc3[nH]2)cc1 | 89.5 µM (inactive) | > 100 µM (inactive) | 95.7 µM (inactive) | > 100 µM (inactive) | > 100 µM (inactive) | > 100 µM (inactive) | 73.3 µM (inactive) | > 100 µM (inactive) | > 100 µM (inactive) | 77.8 µM (inactive) | > 100 µM (inactive) | 57.4 µM (inactive) | > 100 µM (inactive) | > 100 µM (inactive) | > 100 µM (inactive) | 92.3 µM (inactive) | 6.97 µM (inactive) | > 100 µM (inactive) |  |  |
| O=C1Cc2cn[nH]c2-c2ccccc2N1 | 41.8 µM (inactive) | 26.2 µM (inactive) | 37.9 µM (inactive) | 63.1 µM (inactive) | 26.5 µM (inactive) | 22.9 µM (inactive) |  | 38 µM (inactive) | > 75.9 µM (inactive) | 16.3 µM (inactive) | 32.1 µM (inactive) | 16.1 µM (inactive) | > 46.7 µM (inactive) | > 45.5 µM (inactive) | 41.1 µM (inactive) | 39 µM (inactive) | 17.1 µM (inactive) | 29.9 µM (inactive) | > 85.7 µM (inactive) | 21.7 µM (inactive) |
| O=[N+]([O-])c1ccccc1S(=O)(=O)c1cc(O)cc2c1NCCC2 | 12.1 µM (inactive) | 25.5 µM (inactive) | 27.4 µM (inactive) | 18.7 µM (inactive) | 5.78 µM (inactive) | 15.2 µM (inactive) | 35.2 µM (inactive) | 29.8 µM (inactive) | 28.1 µM (inactive) | 14.2 µM (inactive) | 21 µM (inactive) | 7.55 µM (inactive) | 17.4 µM (inactive) | 18.2 µM (inactive) | 20.7 µM (inactive) | 7.45 µM (inactive) |  | 19.9 µM (inactive) | 17.9 µM (inactive) |  |
| CC(C)=CCC/C(C)=C/CC/C(C)=C/[C@@H]1[C@@H](CO)[C@]1(C)CC/C=C(\C)CCC=C(C)C | 18.4 µM (inactive) |  | > 100 µM (inactive) | > 100 µM (inactive) | 31.2 µM (inactive) |  | 46.3 µM (inactive) | 39.8 µM (inactive) | 19.4 µM (inactive) | 11.5 µM (inactive) | 69.7 µM (inactive) | 52.5 µM (inactive) | > 100 µM (inactive) | 21.6 µM (inactive) | 19.4 µM (inactive) |  | 25.2 µM (inactive) | 32 µM (inactive) | > 100 µM (inactive) | 19.6 µM (inactive) |
| CC12c3c4cc(Br)cc3Oc3cc(Br)cc(c31)Oc1cc(Br)cc(c12)O4 | 19.8 µM (inactive) | 81.5 µM (inactive) | > 100 µM (inactive) | 30.5 µM (inactive) | 17.7 µM (inactive) | 27.7 µM (inactive) |  | 44.8 µM (inactive) | 11.2 µM (inactive) | 24.9 µM (inactive) | 60.4 µM (inactive) | 12.4 µM (inactive) | 19.9 µM (inactive) | 17.8 µM (inactive) | 10.5 µM (inactive) | 43.4 µM (inactive) | 19.4 µM (inactive) | 57.1 µM (inactive) | > 100 µM (inactive) | 15.1 µM (inactive) |
| COc1ccc(Cc2c(N)[nH]c(=O)[nH]c2=O)cc1 | > 100 µM (inactive) | > 100 µM (inactive) | > 100 µM (inactive) | > 100 µM (inactive) | > 100 µM (inactive) | > 100 µM (inactive) | > 100 µM (inactive) | > 100 µM (inactive) | > 100 µM (inactive) | > 100 µM (inactive) | > 100 µM (inactive) | > 100 µM (inactive) | > 100 µM (inactive) | > 100 µM (inactive) | > 100 µM (inactive) |  | 22 µM (inactive) | > 100 µM (inactive) | > 100 µM (inactive) |  |
| COc1ccc(C(=CCC(C)C2CCC3[C@@H]4C(OC(C)=O)CC5CC(OC(C)=O)CC[C@]5(C)C4CC(OC(C)=O)[C@]23C)c2ccc(OC)cc2)cc1 (stereo partly specified) | > 100 µM (inactive) | > 100 µM (inactive) | > 100 µM (inactive) | 83.8 µM (inactive) | 66.1 µM (inactive) |  |  | > 100 µM (inactive) |  |  | > 100 µM (inactive) |  |  | > 100 µM (inactive) | > 100 µM (inactive) | 20.3 µM (inactive) | 29.2 µM (inactive) |  | > 100 µM (inactive) | 19.5 µM (inactive) |
| CC1=NN(C(=O)c2ccccc2O)C(=O)/C1=C/c1cccc(O)c1 | 0.826 µM (active) | 12.6 µM (inactive) |  | 50.6 µM (inactive) | 0.244 µM (active) | 0.274 µM (active) | > 100 µM (inactive) | 0.375 µM (active) | 8.51 µM (inactive) | 0.597 µM (active) | 1.18 µM (inactive) | 0.824 µM (active) | 1.94 µM (inactive) | 38.8 µM (inactive) | 0.637 µM (active) | 1.6 µM (inactive) | 0.731 µM (active) | 0.405 µM (active) | 2.43 µM (inactive) | 0.938 µM (active) |
